Results taken from patent US7855228B2, “Antibiotics targeting MreB” (The Board of Trustees of the Leland Stamford Junior …, priority 2005, dated 2010).

Experiments:
[1] = test system: E. coli MG1655; experiment: Microscopic observation of cell shape; type: cell-based; details: for Effect on E. coli cell morphology (in words): 3×MIC or 300 μg/ml, 16 hrs
How it was run: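 E. coli K-12 MG1655 grown in Lennox broth with 0.1% glucose (pH 7.2), exposed to compound, methanol-fixed 5 min and examined by differential interference contrast microscopy. Anucleate cells scored after DAPI staining (5 μg/ml) using combined fluorescence phase-contrast.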

[2] = test system: Caulobacter crescentus; experiment: Caulobacter growth (optical density, doubling time); type: cell-based; details: for Doubling in A22 in WT Genetic Background / Doubling Time in A22 / Doubling in A22 when Replaced by WT mreB: cell mass over 6 hr, A660
Description: Similar volumes of solvent (methanol) alone had no effect on growth. […] This rapid effect on cell growth could be due to a disruption in cell wall deposition or could reflect a secondary response to some other cellular perturbation.
MreB Is the Direct Target of A22. To identify the cellular target(s) of A22, we carried out a screen for A22-resistant mutants by growing large numbers of Caulobacter on plates containing 10 μg/ml A22. We independently isolated 20 mutants that stably and repeatedly formed colonies on plates containing 10 μg/ml A22 and grew in liquid culture containing 10 μg/ml A22. Since MreB was proposed as a possible target of A22, we PCR-amplified and sequenced the mreB gene in the 20 A22-resistant strains and a control wild-type strain. Each of the 20 A22-resistant strains contained a single missense point mutation in its mreB gene, whereas the wild-type A22-sensitive strain had no mreB point mutations (Table 2). Though isolated independently, the 20 strains had only 7 different point mutations: one specific point mutation was found in 10 of the strains, another specific point mutation was found in 5 of the strains, and 5 additional point mutations were found in 1 strain each. Since all 7 of these mutations affected amino acids that are conserved between Caulobacter MreB and Thermotoga maritima MreB, they could be mapped onto the solved three-dimensional structure of T. maritima MreB. […] All of the resistant strains grow at a similar rate in rich PYE medium (w115 min/doubling), which is slower than wild-type cells without drug (87 min/doubling), but they are largely unaffected by the presence of A22 (w115 min/doubling) (Table 2).
Bacterial Strains and Growth Conditions. Caulobacter crescentus strains CB15N and derivatives were grown in PYE or M2G medium or agar plates supplemented with the appropriate combinations of antibiotics, glucose, xylose, A22, and the A22 diluent, methanol. The FROS strains labeled at both the origin and CC2943, CC3300, CC3656, and CC0091, or singly labeled at CC0786, and CC3192 were generated and characterized in a previous study, where they were referred to as MPO40, MPO53, MPO7, MPO133, MP156, and MP82, respectively. Growth and analysis conditions for the mreB depletion, holB:gfp, and FROS strains have been previously described. The methods for ΦCr30-mediated generalized phage transduction and swarmer cell isolation by Percoll density gradient centrifugation have also been described. Washes were performed by micro centrifugation at 8000 g. Twenty independent A22-resistant Caulobacter mutants were isolated by growing 20 single CB15N colonies overnight and plating 10^9 cells per culture on PYE plates containing 10 μg/ml A22. One A22-resistant colony from each plate was isolated, retested, and characterized. To sequence the mreB gene from these strains, mreB was PCR-amplified and the resulting band was gel-purified (Qiagen) and sequenced. Overlay PCR mutagenesis was used to introduce the […] point mutation (A509G) into the previously described PxyI:gfp:mreB construct.

[3] = test system: Caulobacter; experiment: Colony formation assay; type: cell-based, Caulobacter crescentus
Source text: To assess the impact of A22 on cell division and survival, we examined the effect of A22 on colony formation.

[4] = test system: Caulobacter; experiment: Caulobacter morphology (DIC images); type: cell-based, Caulobacter crescentus
Source text: Consistent with previous observations in E. coli (Iwai et al., 2002), A22 caused a dose-dependent alteration of Caulobacter morphology, transforming normal, crescent-shaped cells into rounded, lemon-shaped cells. The progression of cell shape deformation by A22 treatment was qualitatively similar to that caused by mreB depletion, though the A22 effect was more rapid (FIGS. […]). […] For example, A22 could disrupt the localization of new cell wall synthesis but have no effect on the existing cell wall, such that without additional growth and wall synthesis A22's effects cannot be perceived. A dependence on cell growth could also explain why A22's effect on morphology takes several hours to manifest.
Microscopy and Timelapse Imaging. All experiments other than the A22 flow-cell analysis were performed by mounting the samples on 1% agarose pads as described, with the appropriate concentration of A22 added to the agarose. The rates of origin-distal locus segregation were determined by inducing PxyI:lacI:cfp expression with 0.03% xylose for 75 min, isolating swarmer cells, and growing the swarmer cells in M2G liquid medium for 50 min. After 50 min, 10 μg/ml of A22 was added to these liquid cultures, they were mounted onto 1% M2G agarose pads containing 10 μg/ml A22, and a phase and CFP fluorescence image was captured every 2 min for 60 min. The images were analyzed by previously described software to determine the average position and rate of movement of the observed foci.

Structure (SMILES): N=C(N)SCc1ccc(Cl)c(Cl)c1 [Compound 1, S-(3,4-dichlorobenzyl)isothiourea]
- Effect on E. coli cell morphology (in words) ([1]; 30° C.): induced a spherical cell shape
- Effect on E. coli cell morphology (in words) ([1]; 30° C., listed as A22): induced spherical cells
- Shape ([1]; E. coli MG1655 treated at 3×MIC (*), 30° C., 16 h): Sphere*
- Shape ([1]; Example 2, methods as in Example 1): Sphere
- Effect on growth of Caulobacter cultures ([2]; 0.1-100 μg/ml, up to 6 hr): slowed growth in a dose-dependent fashion
- Doubling in A22 in WT Genetic Background ([2]; mreB allele: A325P): 115′
- Doubling in A22 in WT Genetic Background ([2]; mreB allele: D16G): 112′
- Doubling in A22 in WT Genetic Background ([2]; mreB allele: D192G): 116′
- Doubling in A22 in WT Genetic Background ([2]; mreB allele: L23R): 120′
- Doubling in A22 in WT Genetic Background ([2]; mreB allele: None (wt)): 156′
- Doubling in A22 in WT Genetic Background ([2]; mreB allele: P112S): 119′
- Doubling in A22 in WT Genetic Background ([2]; mreB allele: T167A): 105′
- Doubling in A22 in WT Genetic Background ([2]; mreB allele: V324A): 115′
- Doubling Time in A22 ([2]; mreB mutation: A325P): 116′
- Doubling Time in A22 ([2]; mreB mutation: D16G): 115′
- Doubling Time in A22 ([2]; mreB mutation: D192G): 118′
- Doubling Time in A22 ([2]; mreB mutation: L23R): 121′
- Doubling Time in A22 ([2]; mreB mutation: None (wt)): 148′
- Doubling Time in A22 ([2]; mreB mutation: P112S): 118′
- Doubling Time in A22 ([2]; mreB mutation: T167A): 110′
- Doubling Time in A22 ([2]; mreB mutation: V324A): 113′
- Time after A22 treatment at which a decline in growth rate was observed ([2]; rich PYE medium): 30 min
- Doubling in A22 when Replaced by WT mreB ([2]; strain: A325P): 144′
- Doubling in A22 when Replaced by WT mreB ([2]; strain: D16G): 150′
- Doubling in A22 when Replaced by WT mreB ([2]; strain: None (wt)): 145′
- Doubling in A22 when Replaced by WT mreB ([2]; strain: P112S): 146′
- Doubling in A22 when Replaced by WT mreB ([2]; strain: T167A): 148′
- Doubling in A22 when Replaced by WT mreB ([2]; strain: V324A): 142′
- Colony formation (CFU) ([3]; 0.1 μg/ml): un-perturbed
- Colony formation (CFU) ([3]; 1 μg/ml): partially slowed colony formation
- Colony formation (CFU) ([3]; 10 μg/ml and higher): completely halted the increase in CFU
- Caulobacter growth and cell shape ([4]; 100 μg/ml): completely blocked growth but did not cause Caulobacter to round up
- Caulobacter growth and cell shape ([4]; 0.1, 1, and 10 μg/ml): both slowed cell growth and altered cell shape
